What was measured:
[1] = Cytotoxicity against human KB/S cells after 72 hrs by MTT assay; assay type: functional, cell-based; conditions: Homo sapiens, 72 h
KB/VJ300 [2] = assay: Cytotoxicity against human KB/VJ300 cells after 72 hrs by MTT assay; assay type: functional, cell-based; conditions: Homo sapiens, KB/VJ300, 72 h
KB/VJ300 [3] = assay: Cytotoxicity against human KB/VJ300 cells after 72 hrs in presence of vincristine by MTT assay; assay type: functional, cell-based; conditions: Homo sapiens, KB/VJ300, 72 h; also: test concentration or dose not given here
A549 = assay: Cytotoxicity against human A549 cells after 72 hrs by MTT assay; assay type: functional, cell-based; conditions: A549, 72 h
MRC5 = assay: Cytotoxicity against human MRC5 cells after 72 hrs by MTT assay; assay type: cell-based; conditions: Homo sapiens, MRC5, 72 h
PC-3 = assay: Cytotoxicity against human PC3 cells after 72 hrs by MTT assay; assay type: functional, cell-based; conditions: Homo sapiens, PC-3, 72 h
LNCaP = assay: Cytotoxicity against human LNCAP cells after 72 hrs by MTT assay; assay type: functional, cell-based; conditions: Homo sapiens, LNCaP, 72 h
MCF7 = assay: Cytotoxicity against human MCF7 cells after 72 hrs by MTT assay; assay type: functional, cell-based; conditions: Homo sapiens, MCF7, 72 h
MDA-MB-231 = assay: Cytotoxicity against human MDA-MB-231 cells after 72 hrs by MTT assay; assay type: functional, cell-based; conditions: Homo sapiens, MDA-MB-231, 72 h
HCT-116 = assay: Cytotoxicity against human HCT116 cells after 72 hrs by MTT assay; assay type: functional, cell-based; conditions: HCT-116, 72 h
HT-29 = assay: Cytotoxicity against human HT-29 cells after 72 hrs by MTT assay; assay type: functional, cell-based; conditions: Homo sapiens, HT-29, 72 h

Row | SMILES | IC50 [1] | IC50 (KB/VJ300 [2]) | IC50 (KB/VJ300 [3]) | IC50 (A549) | IC50 (MRC5) | IC50 (PC-3) | IC50 (LNCaP) | IC50 (MCF7) | IC50 (MDA-MB-231) | IC50 (HCT-116) | IC50 (HT-29)
1 | CC[C@]12C=CCN3CC[C@]4(C(=C(C(=O)OC)C1)Nc1cc5c(cc14)[C@@H]1[C@H](O5)[C@@H](O)[C@@]4(CC)CC(C(=O)OC)=C5Nc6c(cc(O)c(OC)c6OC)[C@@]56CCN1[C@@H]46)[C@@H]32 | 1500 nM | > 10000 nM |  |  |  |  |  |  |  |  | 
2 | CC[C@@]12CC(C(=O)OC)=C3Nc4c(cc(O)c(OC)c4OC)[C@@]34CCN([C@@H]3c5cc6c(cc5O[C@@H]3[C@H]1O)NC1=C(C(=O)OC)C[C@]35CCO[C@H]3CCN3CC[C@@]16[C@@H]35)[C@@H]24 | 500 nM |  | 1400 nM | > 10000 nM | 6200 nM |  |  |  |  |  | 
3 | CC[C@@]12CC(C(=O)OC)=C3Nc4cc5c(cc4[C@@]34CCN(C[C@H]3O[C@H]31)[C@@H]24)[C@@H]1[C@H](O5)[C@@H](O)[C@@]2(CC)CC(C(=O)OC)=C3Nc4c(ccc(OC)c4O)[C@@]34CCN1[C@@H]24 | 100 nM | > 10000 nM | 1300 nM | > 10000 nM |  | 7900 nM | 9600 nM | 600 nM | 1400 nM | 1100 nM | 300 nM
4 | CC[C@@]12CC(C(=O)OC)=C3Nc4cc5c(cc4[C@@]34CCN(C[C@H](O)[C@H]1O)[C@@H]24)[C@@H]1[C@H](O5)[C@@H](O)[C@@]2(CC)CC(C(=O)OC)=C3Nc4c(cc(O)c(OC)c4OC)[C@@]34CCN1[C@@H]24 | 700 nM | > 10000 nM | > 10000 nM | > 10000 nM |  | 2500 nM | 300 nM | 1200 nM | > 10000 nM | 2100 nM | 1700 nM
5 | CC[C@]12C=CCN3CC[C@]4(C(=C(C(=O)OC)C1)Nc1cc5c(cc14)[C@@H]1[C@H](O5)[C@@H](O)[C@@]4(CC)CC(C(=O)OC)=C5N=C6C(=CC(=O)C(OC)=C6OC)[C@@]56CCN1[C@H]64)[C@@H]32 | 30 nM | 4600 nM | 4300 nM | > 10000 nM | 5600 nM | 300 nM | 2800 nM | 800 nM | 500 nM | 100 nM | 400 nM
6 | CC[C@@]12CC(C(=O)OC)=C3N=C4C(=CC(=O)C(OC)=C4OC)[C@@]34CCN([C@H](c3ccc5c(c3)[C@@]36CCN7C[C@H]8O[C@H]8[C@@](CC)(CC[C@@H]3N5C)[C@H]76)[C@H]3O[C@H]31)[C@H]42 | 1100 nM | 2700 nM | 4400 nM | > 10000 nM | > 10000 nM | 4300 nM | 3300 nM | 8400 nM | 6000 nM | 2400 nM | 3400 nM
7 | CC[C@@]12CC(C(=O)OC)=C3N=C4C(=CC(=O)C(OC)=C4OC)[C@@]34CCN([C@@H]3c5cc6c(cc5O[C@@H]3[C@H]1O)NC1=C(C(=O)OC)C[C@]3(CC)[C@@H]5O[C@@H]5CN5CC[C@@]16[C@@H]53)[C@H]42 | 100 nM | 8600 nM | 1500 nM | > 10000 nM |  | 700 nM | > 10000 nM | 300 nM | 400 nM | 200 nM | 200 nM
